According to patent US11142515B2, “Pyrazolyl-ureas as kinase inhibitors” (RESPIVERT LIMITED, priority 2014, dated 2021):
pEC50, pIC50: −log10 of the molar value.

Legend:
Syk = target: T1, Syk (Homo sapiens, UniProt P43405); experiment: Syk enzyme inhibition (Z-LYTE FRET); format: biochemical; conditions: Table 2A
T1 construct: purchased Life Technologies
Experimental: (§1) The enzyme inhibitory activities of compounds disclosed herein were determined by FRET using synthetic peptides labelled with both donor and acceptor fluorophores (Z-LYTE, Life Technologies, Paisley, UK).
(§2) The relevant enzyme (1000 ng/mL, 1400 ng/mL or 2000 ng/mL respectively, 2.5 μL) was incubated with the test compound (either 40 μg/mL, 12 μg/mL, 4 μg/mL, 1.2 μg/mL, 0.4 μg/mL, 0.12 μg/mL, 0.04 μg/mL, 0.012 μg/mL, 0.004 μg/mL or 0.0012 μg/mL, 2.5 μL each) for 2 h at RT. The FRET peptides (8 μM, 2.5 μL), and appropriate ATP solutions (2.5 μL, 800 μM for c-Src, and 60 μM ATP for HCK and Syk) were then added to the enzyme/compound mixtures and incubated for 1 h at RT. Development reagent (protease, 5 μL) was added for 1 h prior to detection in a fluorescence microplate reader (EnVision, Perkin Elmer).
(§3) In all cases, the site-specific protease cleaves non-phosphorylated peptide only and eliminates the FRET signal. Phosphorylation levels of each reaction were calculated using the ratio of coumarin emission (donor) over fluorescein emission (acceptor), for which low ratios indicate high phosphorylation and high ratios indicate low phosphorylation levels.

[1] = test system: IL-8 release in d-U937 cells; experiment: LPS-induced IL-8 release in d-U937 cells; format: cell-based; conditions: Homo sapiens, dU937, LPS 0.1 μg/mL 4 h
Experimental: (§4) U937 cells, a human monocytic cell line, were differentiated into macrophage-type cells by incubation with PMA (100-200 ng/mL) for 48 to 72 h. Cells were pre-incubated with final […] concentrations of test compound for 2 h and were then stimulated with LPS (0.1 μg/mL; from E. coli: O111:B4, Sigma) for 4 h. The supernatant was collected for determination of TNFα and IL-8 concentrations by sandwich ELISA (Duo-set, R&D systems). […] The relative 50% effective concentration (REC50) was determined from the resultant concentration-response curve. The inhibition of IL-8 production was calculated at each concentration of test compound by comparison with vehicle control.

GSK 3α enzyme isoform = target: T2, GSK 3α enzyme isoform (Homo sapiens, UniProt P49840); experiment: GSK 3α enzyme inhibition (Z-LYTE FRET); format: biochemical; conditions: Table 2A; read-out: IC50 Values for Enzyme Inhibition GSK3α
T2 construct: purchased Life Technologies
Experimental: as §1
The GSK3a protein (500 ng/mL, 2.5 μL) was incubated with the test compound (2.5 μL at either 40 μg/mL, 12 μg/mL, 4 μg/mL, 1.2 μg/mL, 0.4 μg/mL, 0.12 μg/mL, 0.04 μg/mL, 0.012 μg/mL, 0.004 μg/mL or 0.0012 μg/mL) for 2 h at RT. The FRET peptide (8 μM, 2.5 μL), which is a phosphorylation target for GSK3α, and ATP (40 μM, 2.5 μL) was then added to the enzyme/compound mixture and the resulting mixture incubated for 1 h at RT. Development reagent (protease, 5 μL) was added for 1 h prior to detection in a fluorescence microplate reader (EnVision, Perkin Elmer).
as §3

p38MAPKγ (MAPK12) = target: T3, p38MAPKγ (MAPK12) (Homo sapiens, UniProt P53778); experiment: p38 MAPKγ enzyme inhibition (Z-LYTE FRET); format: biochemical; conditions: Table 2A; read-out: IC50 Values for Enzyme Inhibition p38 MAPKγ
T3 construct: purchased Life Technologies
T3 sequence (P53778 1-367): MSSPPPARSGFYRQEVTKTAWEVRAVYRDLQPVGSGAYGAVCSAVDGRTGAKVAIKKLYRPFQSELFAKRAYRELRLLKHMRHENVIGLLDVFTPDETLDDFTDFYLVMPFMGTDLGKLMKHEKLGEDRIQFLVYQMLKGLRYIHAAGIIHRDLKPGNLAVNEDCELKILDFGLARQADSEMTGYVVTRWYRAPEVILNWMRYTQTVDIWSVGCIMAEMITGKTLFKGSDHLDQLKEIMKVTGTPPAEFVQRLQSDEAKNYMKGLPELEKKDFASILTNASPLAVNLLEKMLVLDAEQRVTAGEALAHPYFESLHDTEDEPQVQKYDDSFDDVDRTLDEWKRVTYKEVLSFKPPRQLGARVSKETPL
Procedure, shortened: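 Enzyme (added at 800 ng/mL) was preincubated 2 h at RT with compound (solutions of 40 to 0.0012 μg/mL), then FRET peptide (8 μM) and ATP (400 μM), both as added, were reacted 1 h at RT. Protease development followed for 1 h; phosphorylation was read as the coumarin/fluorescein emission ratio.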

[2] = test system: TNFα release in d-U937 cells; experiment: LPS-induced TNFα release in d-U937 cells; format: cell-based; conditions: Homo sapiens, dU937; read-out: LPS Induced Release TNFα REC50 (dU937); note: relative to 10 µg/mL BIRB-796
Experimental: as §4

Hck = target: T4, Hck (Homo sapiens, UniProt P08631); experiment: Hck enzyme inhibition (Z-LYTE FRET); format: biochemical; conditions: Table 2A
T4 construct: purchased Life Technologies
Experimental: as §1, §2, §3

c-Src = target: T5, c-Src (Homo sapiens, UniProt P12931); experiment: c-Src enzyme inhibition (Z-LYTE FRET); format: biochemical; conditions: Table 2A
T5 construct: purchased Life Technologies
Experimental: as §1, §2, §3

d-U937 cells = experiment: Cell viability: MTT assay in differentiated U937 cells; format: cell-based, human; conditions: 10 μg/mL
Procedure, shortened: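 Viability loss, calculated against 0.5% DMSO vehicle (gains reported negative), was measured by MTT reduction (1 h) and A550 after DMSO solubilisation. Compound exposure of d-U937 cells was 10 μg/mL final, for 24 h in 10% FCS or 4 h in 5% FCS RPMI1640.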

T4 sequence (P08631 22-526): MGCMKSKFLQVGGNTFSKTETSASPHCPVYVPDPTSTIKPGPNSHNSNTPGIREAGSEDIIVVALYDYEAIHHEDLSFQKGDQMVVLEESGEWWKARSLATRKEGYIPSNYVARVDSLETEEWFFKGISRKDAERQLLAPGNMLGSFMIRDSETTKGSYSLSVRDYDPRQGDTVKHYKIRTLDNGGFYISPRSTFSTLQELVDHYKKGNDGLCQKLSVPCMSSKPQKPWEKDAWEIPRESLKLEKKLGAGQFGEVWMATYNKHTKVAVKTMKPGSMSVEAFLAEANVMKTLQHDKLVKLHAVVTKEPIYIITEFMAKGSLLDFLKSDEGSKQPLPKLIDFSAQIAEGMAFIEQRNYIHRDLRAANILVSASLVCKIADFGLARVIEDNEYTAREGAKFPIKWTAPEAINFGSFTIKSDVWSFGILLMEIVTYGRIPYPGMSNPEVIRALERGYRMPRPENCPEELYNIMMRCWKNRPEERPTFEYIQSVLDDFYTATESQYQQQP
T5 sequence (P12931 whole entry): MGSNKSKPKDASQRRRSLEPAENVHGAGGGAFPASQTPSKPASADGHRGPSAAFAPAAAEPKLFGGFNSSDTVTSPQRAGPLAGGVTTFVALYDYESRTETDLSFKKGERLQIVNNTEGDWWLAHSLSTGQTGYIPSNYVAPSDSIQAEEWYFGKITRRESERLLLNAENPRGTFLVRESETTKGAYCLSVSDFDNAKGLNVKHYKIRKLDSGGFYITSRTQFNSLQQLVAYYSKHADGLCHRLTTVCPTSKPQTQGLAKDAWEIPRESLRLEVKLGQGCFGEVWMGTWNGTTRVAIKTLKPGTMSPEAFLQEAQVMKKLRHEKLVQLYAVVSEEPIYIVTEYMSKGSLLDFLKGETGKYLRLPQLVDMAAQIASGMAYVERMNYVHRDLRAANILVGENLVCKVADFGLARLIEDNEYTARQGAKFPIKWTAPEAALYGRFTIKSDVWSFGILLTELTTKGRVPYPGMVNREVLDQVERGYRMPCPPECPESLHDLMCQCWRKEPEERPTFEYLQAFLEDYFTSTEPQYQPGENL
T2 sequence (P49840 whole entry, canonical isoform): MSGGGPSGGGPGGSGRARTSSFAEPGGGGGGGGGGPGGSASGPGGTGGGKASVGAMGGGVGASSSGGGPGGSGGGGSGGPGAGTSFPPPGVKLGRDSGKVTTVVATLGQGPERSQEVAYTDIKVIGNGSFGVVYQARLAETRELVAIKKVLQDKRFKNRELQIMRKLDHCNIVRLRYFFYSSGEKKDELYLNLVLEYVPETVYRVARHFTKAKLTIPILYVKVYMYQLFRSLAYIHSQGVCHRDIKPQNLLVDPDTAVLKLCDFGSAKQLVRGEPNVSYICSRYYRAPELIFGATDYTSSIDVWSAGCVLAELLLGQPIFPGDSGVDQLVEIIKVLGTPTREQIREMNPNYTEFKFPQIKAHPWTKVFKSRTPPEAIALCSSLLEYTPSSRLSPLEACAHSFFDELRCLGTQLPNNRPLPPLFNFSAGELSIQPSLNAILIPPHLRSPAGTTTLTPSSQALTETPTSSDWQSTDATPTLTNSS

Compound	pIC50 (Syk)	pIC50 [1]	pIC50 (GSK 3α enzyme isoform)	pIC50 (p38MAPKγ (MAPK12))	pEC50 [2]	pIC50 (Hck)	pIC50 (c-Src)	MTT Assay Cell viability at time point indicated in d-U937 Cells, 4 h (d-U937 cells)	MTT Assay Cell viability at time point indicated in d-U937 Cells, 24 h (d-U937 cells)
Cc1ccc(-n2nc(C(C)(C)C)cc2NC(=O)Nc2ccc(OCc3ccnc(Nc4cncc(CC(=O)N(C)C)n4)c3)c3ccccc23)cc1 [Example 8, 2-(6-((4-(((4-(3-(3-(tert-butyl)-1-(p-tolyl)-1H-pyrazol-5-yl)ureido)naphthalen-1-yl)oxy)methyl)pyridin-2-yl)amino)pyrazin-2-yl)-N,N-dimethylacetamide]	< 4.83	7.99	6.86	7.37	8.41	8.00	7.49	− (−ve and +ve indicate the value is below and above, respectively, the no significant effect threshold defined as 30% inhibition at 10 μg/mL at the time point indicated)	+ (−ve and +ve indicate the value is below and above, respectively, the no significant effect threshold defined as 30% inhibition at 10 μg/mL at the time point indicated)
Cc1ccc(-n2nc(C(C)(C)C)cc2NC(=O)Nc2ccc(OCc3ccnc(Nc4cnc(C(=O)N(C)C)cn4)c3)c3ccccc23)cc1 [Example 9, 5-((4-(((4-(3-(3-(tert-Butyl)-1-(p-tolyl)-1H-pyrazol-5-yl)ureido)naphthalen-1-yl)oxy)methyl)pyridin-2-yl)amino)-N,N-dimethylpyrazine-2-carboxamide]	< 4.83	8.06	5.48	5.03	8.89	5.82	5.60	− (−ve and +ve indicate the value is below and above, respectively, the no significant effect threshold defined as 30% inhibition at 10 μg/mL at the time point indicated)	− (−ve and +ve indicate the value is below and above, respectively, the no significant effect threshold defined as 30% inhibition at 10 μg/mL at the time point indicated)
Cc1ccc(-n2nc(C(C)(C)C)cc2NC(=O)Nc2ccc(OCc3ccnc(Nc4cnc(CO)cn4)c3)c3ccccc23)cc1 [Example 10, 1-(3-(tert-Butyl)-1-(p-tolyl)-1H-pyrazol-5-yl)-3-(4-((2-((5-(hydroxymethyl)pyrazin-2-yl)amino)pyridin-4-yl)methoxy)naphthalen-1-yl)urea]	< 4.80	7.82	< 4.80	7.51	8.55	7.80	7.33	− (−ve and +ve indicate the value is below and above, respectively, the no significant effect threshold defined as 30% inhibition at 10 μg/mL at the time point indicated)	− (−ve and +ve indicate the value is below and above, respectively, the no significant effect threshold defined as 30% inhibition at 10 μg/mL at the time point indicated)
Cc1ccc(-n2nc(C(C)(C)C)cc2NC(=O)Nc2ccc(OCc3ccnc(Nc4cncc(C#N)n4)c3)c3ccccc23)cc1 [Example 11]	< 4.79	7.90	< 4.79	6.17	8.64	< 5.05	6.22	− (−ve and +ve indicate the value is below and above, respectively, the no significant effect threshold defined as 30% inhibition at 10 μg/mL at the time point indicated)	− (−ve and +ve indicate the value is below and above, respectively, the no significant effect threshold defined as 30% inhibition at 10 μg/mL at the time point indicated)
COc1ccc(-n2nc(C(C)(C)C)cc2NC(=O)Nc2ccc(OCc3ccnc(Nc4cnccn4)c3)c3ccccc23)cn1 [Example 12]	< 4.79	8.03	< 4.79	6.70	7.77	7.41	6.98	− (−ve and +ve indicate the value is below and above, respectively, the no significant effect threshold defined as 30% inhibition at 10 μg/mL at the time point indicated)	− (−ve and +ve indicate the value is below and above, respectively, the no significant effect threshold defined as 30% inhibition at 10 μg/mL at the time point indicated)

The next lines start with results.

pIC50 (Syk)	pIC50 [1]	pIC50 (GSK 3α enzyme isoform)	pIC50 (p38MAPKγ (MAPK12))	pEC50 [2]	pIC50 (Hck)	pIC50 (c-Src)	Compound	MTT Assay Cell viability at time point indicated in d-U937 Cells, 4 h (d-U937 cells)	MTT Assay Cell viability at time point indicated in d-U937 Cells, 24 h (d-U937 cells)
< 4.78	8.11	< 4.83	7.20	7.74	7.31	6.89	Cc1ccc(-n2nc(C(C)(C)C)cc2NC(=O)Nc2ccc(OCc3ccnc(Nc4cnccn4)c3)c3ccccc23)s1 [Example 13]	− (−ve and +ve indicate the value is below and above, respectively, the no significant effect threshold defined as 30% inhibition at 10 μg/mL at the time point indicated)	− (−ve and +ve indicate the value is below and above, respectively, the no significant effect threshold defined as 30% inhibition at 10 μg/mL at the time point indicated)
< 4.81	8.26	5.47	6.63	8.54	8.22	7.54	Cc1ccc(-n2nc(C(C)(C)C)cc2NC(=O)Nc2ccc(OCc3ccnc(Nc4cncc(N(C)C)n4)c3)c3ccccc23)cc1 [Example 14]	− (−ve and +ve indicate the value is below and above, respectively, the no significant effect threshold defined as 30% inhibition at 10 μg/mL at the time point indicated)	− (−ve and +ve indicate the value is below and above, respectively, the no significant effect threshold defined as 30% inhibition at 10 μg/mL at the time point indicated)
< 4.81	8.72	5.44	6.80	8.68	7.82	7.47	Cc1ccc(-n2nc(C(C)(C)C)cc2NC(=O)Nc2ccc(OCc3ccnc(Nc4cncc(C5CC5)n4)c3)c3ccccc23)cc1 [Example 15]	− (−ve and +ve indicate the value is below and above, respectively, the no significant effect threshold defined as 30% inhibition at 10 μg/mL at the time point indicated)	− (−ve and +ve indicate the value is below and above, respectively, the no significant effect threshold defined as 30% inhibition at 10 μg/mL at the time point indicated)
